Test results reported in patent publication US4637996A, “Antiulcer composition containing a dipeptide compound” (Nippon Zoki Pharmaceutical Co., Ltd., priority 1984, dated 1987).

System: histamine-induced ulcer formation
Experiment: Inhibition of histamine-induced ulcer formation
Assay type: in vivo, Wister strain rats
Details: 20 mg/kg i.v., rats, histamine dihydrochloride 300 mg/kg i.p., 4 hours; for Ulcer coefficient (mean ± S.E.): sum of surface area of ulcer lesion
Protocol: Immediately thereafter, 300 mg/kg of histamine dihydrochloride was administered intraperitoneally (i.p.) F. Burcher et al; [Beith. Path. Anat., 81, 391 (1928)]. Four hours later, each animal was bled to death by decapitation, and the stomach was removed. 7.5 ml of physiological saline was infused into the removed stomach and partially fixed in 10% formalin for 10 minutes. Then, the stomach was incised along the greater curvature. The sum of the surface area of the ulcer lesion on the glandular part of the stomach was designated as the ulcer coefficient.

Compound | Inhibition rate (%) | Ulcer coefficient (mean ± S.E.)
CN/C(=N/CCSCc1nc[nH]c1C)NC#N [Cimetidine] | 57.6 | 19.1 ± 10.6
cyclic histidyllysine | 66.8 | 14.9 ± 6.0
